Assay results: patent publication US4772633A, “6-pyridyl- and 6-phenyl-3-phenyl-1-hexenes and -1-hexynes, composition containing them, and insecticidal and acaricidal method of using them” (Sumitomo Chemical Company, Limited, priority 1986, dated 1988)
In brackets after ≈: the same amount, converted by molar mass. Read-outs that look alike come from different tables or passages of the source.

Tests used:
Assay type in all cases: in vivo
[1] = test system: common mosquito (Culex pipiens pallens); assay: Test Example 1: mortality of larvae and inhibition of emergence of common mosquito; conditions: for Inhibitory ratio of emergence: 3.5 ppm, counted when all mosquitoes of no treatment group had emerged; for mortality at 3.5 ppm: Culex pipiens, 24 h, last instar larvae, after one day
Experimental: The emulsifiable concentrates of the following present compounds obtained according to Formulation example 2 were each diluted with water so as to obtain respective aqueous solutions containing 3.5 ppm of said compounds, respectively. One hundred ml of thus diluted aqueous solutions were poured into respective polyethylene cups of 180 ml volume, and 20 of the last instar larvae of common mosquito (Culex pipiens pallens) were liberated thereto. After one day, the dead or alive of the larvae were examined. Thereafter, the feed was added to respective cups and the number of emerged mosquitoes of the respective cups was counted when all the mosquitoes of no treatment group had […] to calculate the inhibitory ratios of the emergence. The mortality and the inhibitory ratio of the emergence are shown according to the following three criteria: mortality: A; 90% or more, […] inhibitory: A; 90% or more, ratio of emergence B; less than 90% to 80% C; less than 80%.

[2] = test system: brown rice planthoppers (Nilaparavata lugens); assay: Test Example 7: mortality and residual effect on brown rice planthoppers on sprayed potted rice plants; conditions: Oryza sativa, 24 h
Experimental: The emulsifiable concentrates of the following compounds and control compounds obtained according to Formulation example 2 were each diluted with water one thousand times (corresponding to 100 ppm) and each of thus prepared solutions was sprayed at the rate of 20 ml/2 pots to the rice plant seedlings planted in Wagner pots having a surface area of one ten thousandth are. After air-drying, the threated plants were covered with the iron wire cages, and about 15 adults of brown rice planthoppers (Nilaparavata lugens) were liberated thereto. Further, about 15 adults thereof were also liberated thereto 4 days after the application to examine the residual effects. Twenty four hours after each liberation, the dead and alive adults were examined to calculate the mortality.

[3] = test system: carmine spider mite (Tetranychus cinnabarinus); assay: Test Example 8: degree of damage of kidney bean plant by carmine spider mite; design: key: -: No damage is observed.; +: Slight damage is observed.; ++: The same damage as in the untreated plot is observed; conditions: 500 ppm, sprayed 15 ml/pot plus 2 ml to soil; after 8 days; 25° C.
Experimental: The female adults of carmine spider mite (Tetranychus cinnabarinus) were put at a rate of 10 adults/leaf on the leaves of potted kidney bean (at the primordial leaf stage) which had elapsed 7 days after sowing, and placed in a constant-temperature room kept at 25° C. After 6 days, the 200-fold aqueous dilute solutions (corresponding to 500 ppm), prepared from the emulsifiable concentrates of the following present compounds and control compounds prepared according to Formulation example 2, were each sprayed at a rate of 15 ml/pot on a turn table. At the same time, the soil in the pot was treated with 2 ml of each aqueous solution. After 8 days, the degree of damage of the plant by the mite was examined.
-: No damage is observed.
+: Slight damage is observed.
++: The same damage as in the untreated plot is observed.

[4] = test system: young Japanese carp (Cyprinida carpio); assay: Test Example 9: fish toxicity test; conditions: forty-eight hours, 25°±1° C., Probit method, 2880 min
Experimental: Twenty liters of each of the aqueous solutions containing the prescribed concentrations of the present compounds and comparative control one, and 10 young carp were liberated thereto. Forty-eight hours after, the dead and alive carp were examined to obtain LC50 value, (50% lethal concentration) according to Probit method. All the tests were carried out in thermostatic aquaria whose temperatures were kept at 25°±1° C.
young Japanese carp (Cyprinida carpio)
Average body length ±S.D.: 2.94±0.19 cm.
Average body weight ±S.D.: 0.65±0.13 g.

[5] = test system: tobacco cutworms (Spodoptera litura); assay: Test Example 2: mortality of tobacco cutworm 4th instar larvae on treated artificial feed; conditions: 144 h, 2 ml in 13 g artificial feed, six days after, two replications
From the text: Two ml of thus diluted solutions were impregnated into the artificial feeds (13 g) for tobacco cutworms (Spodoptera litura) and thus prepared feeds were placed in polyethylene cups of 11 cm in diameter, respectively. Ten of the 4th instar larvae were liberated thereon.
Six days after, the dead and alive of the larvae were examined to calculate the mortality (two replications).

[6] = test system: resistant strain of green rice leafhopper (Nephotetix cincticecs); assay: Test Example 3: LC50 against adults of a resistant strain of green rice leafhopper (rice seedling dipping); conditions: Nephotettix cincticeps, 24 h, read-out: LC50 value
Experimental: The emulsifiable concentrates of the following present compounds and control compounds obtained according to Formulation example 2 were each diluted with water to a prescribed concentration, and rice seedlings (about 12 cm in length) were dipped for 1 minute in the resulting aqueous dilute solutions. After air-drying, the seedlings were placed in test tube, and 10 adults of a resistant strain of green rice leafhopper (Nephotetix cincticecs) were liberated in the tube. After one day, the dead and alive of the adults were examined to obtain LC50 (50% lethal concentration)(two replications).

[7] = test system: brown rice planthopper (Nilaparvata lugens); assay: Test Example 4: LC50 against adults of brown rice planthopper (rice seedling dipping); conditions: 24 h, rice seedlings dipped, 10 adults, after one day, two replications
From the text: After air-drying, the seedlings were placed in a test tube, and 10 adults of brown rice planthopper (Nilaparvata lugens) were liberated in the tube.

[8] = test system: rice stem borer (Chilo suppressalis); assay: Test Example 5: LC50 against rice stem borer larvae (artificial feed); conditions: larvae 10 days old, two replications
From the text: Ten of the larvae of the 10 days old were liberated thereon.

[9] = test system: houseflies (Musca domestica) of WHO strains; assay: Test Example 6: LC50 against adult female houseflies of WHO strains (sucrose bait); conditions: filter paper with sucrose bait, adult females, after 48 hours, two replications
From the text: Thirty milligrams of sucrose were uniformly placed on the filter paper as bait. Thereafter, 10 adult female houseflies (Musca domestica) of WHO strains were liberated in the cup, which was then covered witha lid.

[10] = read-out: Mortality (%) liberated 4 days after application
[11] = read-out: Mortality (%) liberated just after air-drying
[12] = rice seedlings dipped 1 minute, 10 adults, after one day, two replications

For `C=CC(C)(CCCc1cccc(Oc2ccccc2)c1)c1ccc(OCC)cc1` (stereo not drawn) [(1), 3-(4-ethoxyphenyl)-3-methyl-6-(3-phenoxyphenyl)-1-hexene], the “Inhibitory ratio of emergence” value [1] was “A (90% or more)”, the mortality at 3.5 ppm [1] was greater than 90% and the mortality at 100 ppm [2, 10] was 100%. For the same compound, the mortality at 100 ppm [2, 11] was 100% and the Degree of damage [3] was “- ~ +”.

`C=CC(C)(CCCc1ccc(F)c(Oc2ccccc2)c1)c1ccc(OCC)cc1` (stereo not drawn) [(2), 3-(4-Ethoxyphenyl)-3-methyl-6-(3-phenoxy-4-fluorophenyl)-1-hexene] was tested, and the “Inhibitory ratio of emergence” value [1] was “A (90% or more)”, the mortality at 3.5 ppm [1] was greater than 90% and the mortality at 100 ppm [2, 10] was 100%. For the same compound, the mortality at 100 ppm [2, 11] was 100% and the Degree of damage [3] was “-”.

With `C#CC(C)(CCCc1cccc(Oc2ccccc2)c1)c1ccc(OCC)cc1` (stereo not drawn) [(3), 3-(4-ethoxyphenyl)-3-methyl-6-(3-phenoxyphenyl)-1-hexyne] the “Inhibitory ratio of emergence” value [1] was “A (90% or more)”, the mortality at 3.5 ppm [1] was greater than 90% and the mortality at 100 ppm [2, 10] was 95%. For the same compound, the mortality at 100 ppm [2, 11] was 100%, the Degree of damage [3] was “-” and the “LC50 value (fish toxicity)” value [4] was greater than 10 ppm.

`C#CC(C)(CCCc1ccc(F)c(Oc2ccccc2)c1)c1ccc(OCC)cc1` (stereo not drawn) [(4), 3-(4-Ethoxyphenyl)-3-methyl-6-(3-phenoxy-4-fluorophenyl)-1-hexyne] was tested, and the “Inhibitory ratio of emergence” value [1] was “A (90% or more)”, the mortality at 3.5 ppm [1] was greater than 90% and the mortality at 100 ppm [2, 10] was 100%. The mortality at 100 ppm [2, 11] was 100%, the Degree of damage [3] was “-” and the “LC50 value (fish toxicity)” value [4] was greater than 10 ppm.

For `C#CC(C)(CCCc1cccc(Oc2ccccc2)c1)c1ccc(OCC=C)cc1` (stereo not drawn) [(7), 3-(4-allyloxyphenyl)-3-methyl-6-(3-phenoxyphenyl)-1-hexyne], the “Inhibitory ratio of emergence” value [1] was “A (90% or more)”, the mortality at 3.5 ppm [1] was 10 to 90% and the mortality at 100 ppm [2, 10] was 93%. The mortality at 100 ppm [2, 11] was 100% and the Degree of damage [3] was “-”.

In the case of `C#CC(C)(CCCc1cccc(Oc2ccccc2)c1)c1ccc(C(F)(F)F)cc1` (stereo not drawn) [(13), 3-(4-Trifluoromethylphenyl)-3-methyl-6-(3-phenoxyphenyl)-1-hexyne], the “Inhibitory ratio of emergence” value [1] was “A (90% or more)”, the mortality at 3.5 ppm [1] was greater than 90% and the mortality at 150 ppm [5] was 100%. The LC50 [6] was 10 µg/mL (≈ 24.5 µM) and the Degree of damage [3] was “-”.

In the case of `C#CC(C)(CCCc1cccc(Oc2ccccc2)c1)c1ccc(Cl)cc1` (stereo not drawn) [(25), 3-(4-Chlorophenyl)-3-methyl-6-(3-phenoxyphenyl)-1-hexyne], the “Inhibitory ratio of emergence” value [1] was “A (90% or more)”, the mortality at 3.5 ppm [1] was greater than 90% and the Degree of damage [3] was “-”.

In the case of `C#CC(C)(CCCc1ccc(F)c(Oc2ccccc2)c1)c1ccc(C(F)(F)F)cc1` (stereo not drawn) [(37), 3-(4-Trifluoromethylphenyl)-3-methyl-6-(3-phenoxy-4-fluorophenyl)-1-hexyne], the “Inhibitory ratio of emergence” value [1] was “A (90% or more)”, the mortality at 3.5 ppm [1] was greater than 90% and the LC50 [6, 12] was 14 µg/mL (≈ 32.8 µM).

For `C#CC(C)(CCCc1ccc(F)c(Oc2ccccc2)c1)c1ccc(CC)cc1` (stereo not drawn) [(39), 3-(4-Ethylphenyl)-3-methyl-6-(3-phenoxy-4-fluorophenyl)-1-hexyne], the “Inhibitory ratio of emergence” value [1] was “A (90% or more)”, the mortality at 3.5 ppm [1] was greater than 90% and the Degree of damage [3] was “- ~ +”.

With `C#CC(CCCc1ccc(F)c(Oc2ccccc2)c1)c1ccc(OCC)cc1` (stereo not drawn) [(43), 3-(4-Ethoxyphenyl)-6-(3-phenoxy-4-fluorophenyl)-1-hexyne] the “Inhibitory ratio of emergence” value [1] was “A (90% or more)”, the mortality at 3.5 ppm [1] was greater than 90% and the Degree of damage [3] was “- ~ +”.

`CCC(C)(CCCc1cccc(Oc2ccccc2)c1)c1ccc(Cl)cc1` (stereo not drawn) [(A), reference compound] showed an LC50 [6] of roughly 500 µg/mL (≈ 1320 µM), an LC50 [7] greater than 500 µg/mL and an LC50 [8] of 230 µg/mL (≈ 607 µM). It also gave an LC50 [9] of roughly 500 µg/mL (≈ 1320 µM), a mortality at 100 ppm [2, 10] of 44% and a mortality at 100 ppm [2, 11] of 71%. For the same compound, the Degree of damage [3] was “+ ~ ++”.

In the case of `CCOc1ccc(C(C)(C)COCc2cccc(Oc3ccccc3)c2)cc1` [(B), reference compound], the mortality at 100 ppm [2, 10] was 65%, the mortality at 100 ppm [2, 11] was 100% and the Degree of damage [3] was “+ ~ ++”.

Work on `CCC(C)c1ccccc1OC(=O)NC` (stereo not drawn) [(C), BPMC, reference compound] yielded a mortality at 100 ppm [2, 10] of 6% and a mortality at 100 ppm [2, 11] of 100%.

`CCOC(=O)CC(SP(=S)(OC)OC)C(=O)OCC` (stereo not drawn) [(D), Malathion, reference compound] gave an LC50 [6, 12] of roughly 500 µg/mL (≈ 1510 µM).
